Experimental findings from article PMC6044636 (ACS Omega, 2016) are described below.

The target in this test is A2AR (Homo sapiens, UniProt P29274). The format is binding.
Chain of A2AR (P29274 whole entry): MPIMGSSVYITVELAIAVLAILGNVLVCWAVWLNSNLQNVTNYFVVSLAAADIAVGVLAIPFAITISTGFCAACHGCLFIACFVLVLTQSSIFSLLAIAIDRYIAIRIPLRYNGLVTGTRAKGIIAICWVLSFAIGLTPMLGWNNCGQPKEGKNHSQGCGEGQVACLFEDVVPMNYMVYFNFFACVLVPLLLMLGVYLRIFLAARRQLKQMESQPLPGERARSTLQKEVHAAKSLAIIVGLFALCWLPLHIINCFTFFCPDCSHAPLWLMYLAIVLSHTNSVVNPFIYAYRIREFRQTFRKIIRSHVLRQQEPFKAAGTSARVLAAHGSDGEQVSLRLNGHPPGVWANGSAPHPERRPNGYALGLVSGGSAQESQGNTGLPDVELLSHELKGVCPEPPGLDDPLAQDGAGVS

Compound `Cn1c(-n2nccn2)nc2c(N)nc(CCC3CCCCC3)nc21` [Compound 8, 2-(2-Cyclohexylethyl)-9-methyl-8-(2H-1,2,3-triazol-2-yl)-9H-purin-6-amine] displayed a Ki of 1.2 nM.

As usually defined, the Ki is a measure of affinity in units of concentration, obtained from inhibition or displacement.
